# Assay results from patent publication US20260130395A1, “Water Dispersible Botanical Compositions” (Aquila Black Limited, priority 2021, published 2026).
# Assay: Stability of cannabinoid compounds and Vitamin E components in Beverage 2 (AB Red) by LCMSMS
# Format: physicochemical
smiles,measurement,setting,value
Cc1c(C)c2c(c(C)c1OC(=O)CCC(=O)O)CC[C@@](C)(CCC[C@H](C)CCC[C@H](C)CCCC(C)C)O2 [α-Tocopheryl succinate],Stability of Vitamin Es in AB Red,"stored at 8° C., 0 days",12.5 µg/mL
same,Stability of Vitamin Es in AB Red,"stored at 8° C., 1 days",11.7 µg/mL
same,Stability of Vitamin Es in AB Red,"stored at 8° C., 2 days",11.7 µg/mL
same,Stability of Vitamin Es in AB Red,"stored at 8° C., 3 days",11.7 µg/mL
same,Stability of Vitamin Es in AB Red,"stored at 8° C., 5 days",11.5 µg/mL
same,Stability of Vitamin Es in AB Red,"stored at 8° C., 8 days",12.6 µg/mL
same,Stability of Vitamin Es in AB Red,"stored at 8° C., 9 days",11.8 µg/mL
same,Stability of Vitamin Es in AB Red,"stored at 8° C., 10 days",12.6 µg/mL
same,Stability of Vitamin Es in AB Red,"stored at 8° C., 11 days",12.1 µg/mL
same,Stability of Vitamin Es in AB Red,"stored at 8° C., 12 days",12.7 µg/mL
same,Stability of Vitamin Es in AB Red,"stored at 8° C., 15 days",12.5 µg/mL
same,Stability of Vitamin Es in AB Red,"stored at 8° C., 16 days",11.5 µg/mL
same,Stability of Vitamin Es in AB Red,"stored at 8° C., 17 days",12.4 µg/mL
same,Stability of Vitamin Es in AB Red,"stored at 8° C., 18 days",11.9 µg/mL
same,Stability of Vitamin Es in AB Red,"stored at 8° C., 19 days",11.7 µg/mL
same,Stability of Vitamin Es in AB Red,"stored at 8° C., 22 days",11.9 µg/mL
same,Stability of Vitamin Es in AB Red,"stored at 8° C., 23 days",12.0 µg/mL
same,Stability of Vitamin Es in AB Red,"stored at 8° C., 24 days",12.2 µg/mL
same,Stability of Vitamin Es in AB Red,"stored at 8° C., 25 days",12.0 µg/mL
same,Stability of Vitamin Es in AB Red,"stored at 8° C., 26 days",12.5 µg/mL
same,Stability of Vitamin Es in AB Red,"stored at 8° C., 29 days",11.6 µg/mL
same,Stability of Vitamin Es in AB Red,"stored at 8° C., 30 days",12.4 µg/mL
same,Stability of Vitamin Es in AB Red,"stored at 8° C., 60 days",11.4 µg/mL
same,Stability of Vitamin Es in AB Red,"stored at 8° C., 90 days",11.5 µg/mL
same,Stability of Vitamin Es in AB Red,"stored at 8° C., 120 days",12.2 µg/mL
same,Stability of Vitamin Es in AB Red,"stored at 8° C., 150 days",11.5 µg/mL
same,Stability of Vitamin Es in AB Red,"stored at 8° C., 180 days",11.4 µg/mL
same,Stability of Vitamin Es in AB Red,"stored at 8° C., 210 days",11.4 µg/mL
same,Stability of Vitamin Es in AB Red,"stored at 8° C., 240 days",11.6 µg/mL
same,Stability of Vitamin Es in AB Red,"stored at 8° C., 270 days",11.5 µg/mL
same,Stability of Vitamin Es in AB Red,"stored at 8° C., 300 days",11.2 µg/mL
same,Stability of Vitamin Es in AB Red,"stored at 8° C., 330 days",11.7 µg/mL
same,Stability of Vitamin Es in AB Red,"stored at 8° C., 360 days",11.3 µg/mL
same,Stability of Vitamin Es in AB Red,"stored at 8° C., 390 days",11.2 µg/mL
same,Stability of Vitamin Es in AB Red,"stored at 8° C., 420 days",11.0 µg/mL
same,Stability of Vitamin Es in AB Red,"stored at 8° C., 450 days",11.2 µg/mL
same,Stability of Vitamin Es in AB Red,"stored at 8° C., 480 days",10.9 µg/mL
same,Stability of Vitamin Es in AB Red,"stored at 8° C., 510 days",10.8 µg/mL
same,Stability of Vitamin Es in AB Red,"stored at 8° C., 540 days",10.9 µg/mL
same,Stability of Vitamin Es in AB Red,"stored at 8° C., 570 days",10.6 µg/mL
same,Stability of Vitamin Es in AB Red,"stored at 21-25° C., 0 days",12.5 µg/mL
same,Stability of Vitamin Es in AB Red,"stored at 21-25° C., 1 days",12.5 µg/mL
same,Stability of Vitamin Es in AB Red,"stored at 21-25° C., 2 days",12.0 µg/mL
same,Stability of Vitamin Es in AB Red,"stored at 21-25° C., 3 days",11.9 µg/mL
same,Stability of Vitamin Es in AB Red,"stored at 21-25° C., 5 days",11.9 µg/mL
same,Stability of Vitamin Es in AB Red,"stored at 21-25° C., 8 days",12.0 µg/mL
same,Stability of Vitamin Es in AB Red,"stored at 21-25° C., 9 days",11.7 µg/mL
same,Stability of Vitamin Es in AB Red,"stored at 21-25° C., 10 days",12.0 µg/mL
same,Stability of Vitamin Es in AB Red,"stored at 21-25° C., 11 days",12.0 µg/mL
same,Stability of Vitamin Es in AB Red,"stored at 21-25° C., 12 days",12.4 µg/mL
same,Stability of Vitamin Es in AB Red,"stored at 21-25° C., 15 days",11.6 µg/mL
same,Stability of Vitamin Es in AB Red,"stored at 21-25° C., 16 days",11.6 µg/mL
same,Stability of Vitamin Es in AB Red,"stored at 21-25° C., 17 days",12.6 µg/mL
same,Stability of Vitamin Es in AB Red,"stored at 21-25° C., 18 days",12.1 µg/mL
same,Stability of Vitamin Es in AB Red,"stored at 21-25° C., 19 days",11.9 µg/mL
same,Stability of Vitamin Es in AB Red,"stored at 21-25° C., 22 days",11.6 µg/mL
same,Stability of Vitamin Es in AB Red,"stored at 21-25° C., 23 days",12.7 µg/mL
same,Stability of Vitamin Es in AB Red,"stored at 21-25° C., 24 days",12.4 µg/mL
same,Stability of Vitamin Es in AB Red,"stored at 21-25° C., 25 days",11.9 µg/mL
same,Stability of Vitamin Es in AB Red,"stored at 21-25° C., 26 days",12.1 µg/mL
same,Stability of Vitamin Es in AB Red,"stored at 21-25° C., 29 days",12.4 µg/mL
same,Stability of Vitamin Es in AB Red,"stored at 21-25° C., 30 days",12.1 µg/mL
same,Stability of Vitamin Es in AB Red,"stored at 21-25° C., 60 days",11.7 µg/mL
same,Stability of Vitamin Es in AB Red,"stored at 21-25° C., 90 days",11.6 µg/mL
same,Stability of Vitamin Es in AB Red,"stored at 21-25° C., 120 days",11.5 µg/mL
same,Stability of Vitamin Es in AB Red,"stored at 21-25° C., 150 days",11.4 µg/mL
same,Stability of Vitamin Es in AB Red,"stored at 21-25° C., 180 days",12.3 µg/mL
same,Stability of Vitamin Es in AB Red,"stored at 21-25° C., 210 days",11.6 µg/mL
same,Stability of Vitamin Es in AB Red,"stored at 21-25° C., 240 days",11.6 µg/mL
same,Stability of Vitamin Es in AB Red,"stored at 21-25° C., 270 days",11.0 µg/mL
same,Stability of Vitamin Es in AB Red,"stored at 21-25° C., 300 days",11.4 µg/mL
same,Stability of Vitamin Es in AB Red,"stored at 21-25° C., 330 days",11.4 µg/mL
same,Stability of Vitamin Es in AB Red,"stored at 21-25° C., 360 days",11.1 µg/mL
same,Stability of Vitamin Es in AB Red,"stored at 21-25° C., 390 days",10.8 µg/mL
same,Stability of Vitamin Es in AB Red,"stored at 21-25° C., 420 days",11.0 µg/mL
same,Stability of Vitamin Es in AB Red,"stored at 21-25° C., 450 days",11.2 µg/mL
same,Stability of Vitamin Es in AB Red,"stored at 21-25° C., 480 days",10.4 µg/mL
same,Stability of Vitamin Es in AB Red,"stored at 21-25° C., 510 days",10.6 µg/mL
same,Stability of Vitamin Es in AB Red,"stored at 21-25° C., 540 days",10.3 µg/mL
same,Stability of Vitamin Es in AB Red,"stored at 21-25° C., 570 days",10.6 µg/mL
